# Key:
# Assay in all cases: Kinase inhibitor library screening, PrestoBlue cell viability, 1 or 10 μM, 72 h
# [1] = test system: 501Mel-GP cells (Dabrafenib-resistant); details: 501Mel GP
# Experimental: (§1) After 72 h of treatment, cell viability was assessed using the PrestoBlue Cell Viability Reagent (ThermoFisher Scientific). Measurements were performed with the CLARIOstar Monochromator microplate reader (BMG Labtech).
# (§2) Kinase inhibitor library screening. […] Each cell line was treated in its sensitive form (parental), and also as 2 resistant derivatives, which were made resistant to either Vemurafenib (XP) or Dabrafenib (GP). Drugs were added at 2 different concentrations, 1 and 10 μM, for 72 h and cell viability was assessed using the PrestoBlue Cell Viability assay. Results are depicted as % viability compared to untreated cells. Each cell line was analyzed at least in duplicate. […] (XLSX 95 kb)
# IGR37 cells (parental) = details: IGR37 Parental
# Experimental: as §1, §2
# [2] = test system: IGR37-XP cells (Vemurafenib-resistant); details: IGR37 XP, 72 h; for cell viability, IGR37 XP, 1μΜ: in %
# Experimental: as §1, §2
# 501Mel cells (parental) = details: 501Mel Parental
# Experimental: as §1, §2
# [3] = test system: 501Mel-XP cells (Vemurafenib-resistant); details: 501Mel XP
# Experimental: as §1, §2
# A375 cells (parental) = details: A375 Parental
# Experimental: as §1, §2
# [4] = test system: A375-XP cells (Vemurafenib-resistant); details: A375 XP
# Experimental: as §1, §2
# [5] = test system: IGR37-GP cells (Dabrafenib-resistant); details: IGR37 GP
# Experimental: as §1, §2
# [6] = test system: A375-GP cells (Dabrafenib-resistant); details: A375 GP
# Experimental: as §1, §2
Structure (SMILES),"cell viability, 501Mel GP, 1μΜ ([1]; 1μΜ, 72 h, in %)","cell viability, 501Mel GP, 10μΜ ([1]; 10μΜ, 72 h, in %)","cell viability, IGR37 Parental, 10μΜ (IGR37 cells (parental); 10μΜ, 72 h, in %)","cell viability, IGR37 XP, 10μΜ ([2]; 10μΜ) [%]","cell viability, IGR37 XP, 1μΜ ([2]; 1μΜ)","cell viability, 501Mel Parental, 1μΜ (501Mel cells (parental); 1μΜ, 72 h, in %)","cell viability, 501Mel Parental, 10μΜ (501Mel cells (parental); 10μΜ, 72 h, in %)","cell viability, 501Mel XP, 1μΜ ([3]; 1μΜ, 72 h, in %)","cell viability, 501Mel XP, 10μΜ ([3]; 10μΜ, 72 h, in %)","cell viability, A375 Parental, 1μΜ (A375 cells (parental); 1μΜ, 72 h, in %)","cell viability, A375 Parental, 10μΜ (A375 cells (parental); 10μΜ, 72 h, in %)","cell viability, A375 XP, 1μΜ ([4]; 1μΜ, 72 h, in %)","cell viability, A375 XP, 10μΜ ([4]; 10μΜ, 72 h, in %)","cell viability, IGR37 GP, 10μΜ ([5]; 10μΜ, 72 h) [%]","cell viability, IGR37 GP, 1μΜ ([5]; 1μΜ, 72 h, in %)","cell viability, A375 GP, 1μΜ ([6]; 1μΜ, 72 h, in %)","cell viability, A375 GP, 10μΜ ([6]; 10μΜ, 72 h, in %)",also measured
N#Cc1c(O)c2c(-c3ccc(-c4ccccc4O)cc3)csc2[nH]c1=O [A-769662],–,–,–,–,–,–,–,–,–,–,–,–,–,–,–,–,–,"cell viability (kinase inhibitor library screening) ([1]; 10μΜ, 72 h): 87.9%; cell viability (kinase inhibitor library screening) (IGR37 cells (parental); 1μΜ, 72 h): 105.9%; cell viability (kinase inhibitor library screening) (IGR37 cells (parental); 10μΜ, 72 h): 111.3%; cell viability (kinase inhibitor library screening) ([2]; 1μΜ): 104.5%; cell viability (kinase inhibitor library screening) ([2]; 10μΜ): 84.8%; cell viability (kinase inhibitor library screening) (501Mel cells (parental); 1μΜ, 72 h): 99.2%; cell viability (kinase inhibitor library screening) (501Mel cells (parental); 10μΜ, 72 h): 97.1%; cell viability (kinase inhibitor library screening) ([3]; 1μΜ, 72 h): 97.4%; cell viability (kinase inhibitor library screening) ([3]; 10μΜ, 72 h): 85.6%; cell viability (kinase inhibitor library screening) (A375 cells (parental); 10μΜ, 72 h): 97.0%; cell viability (kinase inhibitor library screening) (A375 cells (parental); 1μΜ, 72 h): 105.0%; cell viability (kinase inhibitor library screening) ([4]; 1μΜ, 72 h): 104.3%; cell viability (kinase inhibitor library screening) ([5]; 10μΜ, 72 h): 94.7%; cell viability (kinase inhibitor library screening) ([6]; 10μΜ, 72 h): 96.0%"
CCN1CCN(Cc2ccc(-c3cc4c(N[C@H](C)c5ccccc5)ncnc4[nH]3)cc2)CC1 [AEE788 (NVP-AEE788)],114.3,1.2,87.9,25.4,82.4,103.7,1.2,105.3,0.239,108.2,70.3,105.5,70.7,82.6,94.0,110.2,49.2,–
N#C/C(=C\c1ccc(O)c(O)c1)C(=O)NCc1ccccc1 [AG-490],105.8,86.5,–,70.7,104.5,99.1,92.7,93.1,79.3,–,88.6,99.9,91.1,88.3,–,–,88.5,"cell viability, IGR37 Parental, 1μΜ (IGR37 cells (parental); 1μΜ, 72 h, in %): 105.9"
CC(C)(C)c1cc(C=C(C#N)C#N)cc(Br)c1O [AG-1024],109.0,85.4,96.2,46,95.7,98.8,98.3,99.5,85.0,99.7,86.3,106.8,89.1,76.8,96.1,98.0,86.9,–
NC(=O)c1ccc(-c2nc(-c3ccc4c(c3)OCO4)c(-c3ccccn3)[nH]2)cc1 [SB 431542],–,–,–,–,–,–,–,–,–,–,–,–,–,–,–,–,–,"cell viability (kinase inhibitor library screening) ([1]; 1μΜ, in %): 102.6; cell viability (kinase inhibitor library screening) ([1]; 10μΜ, in %): 85.7; cell viability (kinase inhibitor library screening) (IGR37 cells (parental); 10μΜ, in %): 97.8; cell viability (kinase inhibitor library screening) (501Mel cells (parental); 1μΜ, in %): 98.3; cell viability (kinase inhibitor library screening) ([3]; 1μΜ, in %): 93.8; cell viability (kinase inhibitor library screening) ([3]; 10μΜ, in %): 79.9; cell viability (kinase inhibitor library screening) (A375 cells (parental); 1μΜ, in %): 106.2; cell viability (kinase inhibitor library screening) ([4]; 1μΜ, in %): 109.0; cell viability (kinase inhibitor library screening) ([4]; 10μΜ, in %): 106.6; cell viability (kinase inhibitor library screening) ([5]; 1μΜ, in %): 100.4; cell viability (kinase inhibitor library screening) ([5]; 10μΜ, in %): 87.9; cell viability (kinase inhibitor library screening) ([6]; 1μΜ, in %): 100.0; cell viability (kinase inhibitor library screening) ([6]; 10μΜ, in %): 98.5"
